Source: ChEMBL document CHEMBL1201862, “PubChem BioAssay data set” (2004)
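Growth conditions: 96-well plates. Treatment: test compound, 48 hours, 5 concentrations. Analysis: linear interpolation between bracketing concentrations; unreached endpoints set to highest concentration. Abbreviation: GI50, concentration required for 50% inhibition of growth.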 Active and inactive are the calls of the source. Rule as the data show it: active = GI50 up to about 1.1 µM and inactive = higher.

Legend:
Assay in all cases: NCI anticancer screen, dose series, 48 h
[1] = system: M14
[2] = system: UACC-62
[3] = system: SK-OV-3
[4] = system: SK-MEL-5
[5] = system: NCI-H23
[6] = system: LOX IMVI
[7] = system: HT-29
[8] = system: Malme-3M
[9] = system: HCT-15
[10] = system: EKVX
[11] = system: NCI-H460
[12] = system: UO-31
[13] = system: U-251
[14] = system: DLD-1
[15] = system: LXFL 529
[16] = system: SF-295
[17] = system: HCT-116
[18] = system: K562
[19] = system: CCRF-CEM
[20] = system: SK-MEL-28
[21] = system: HOP-92
[22] = system: CAKI-1
[23] = system: KM12
[24] = system: SW-620
[25] = system: UACC-257
[26] = system: 786-0
[27] = system: ACHN
[28] = system: SNB-78
[29] = system: M19-MEL
[30] = system: IGROV-1
[31] = system: SNB-75
[32] = system: OVCAR-3
[33] = system: OVCAR-8
[34] = system: A498
[35] = system: HOP-62
[36] = system: SK-MEL-2
[37] = system: COLO 205
[38] = system: SF-268
[39] = system: SNB-19
[40] = system: SF-539
[41] = system: OVCAR-5
[42] = system: MDA-N
[43] = system: BT-549
[44] = system: SR
[45] = system: RPMI-8226
[46] = system: T47D
[47] = system: Hs-578T
[48] = system: TK-10
[49] = system: MOLT-4
[50] = system: MCF7
[51] = system: OVCAR-4
[52] = system: NCI/ADR-RES
[53] = system: MDA-MB-231
[54] = system: HCC 2998
[55] = system: A549
[56] = system: MDA-MB-435
[57] = system: SN12C
[58] = system: NCI-H226
[59] = system: DU-145
[60] = system: HL-60
[61] = system: RXF 393
[62] = system: NCI-H522
[63] = system: PC-3

SMILES: CCOC(=O)N1CCC(N[C@@H]2c3cc4c(cc3[C@@H](c3cc(OC)c(O)c(OC)c3)[C@H]3C(=O)OC[C@@H]32)OCO4)CC1
- GI50 [1]: 1500 nM (inactive)
- GI50 [2]: 771 nM (active)
- GI50 [3]: 966 nM (active)
- GI50 [4]: 1120 nM (active)
- GI50 [5]: 501 nM (active)
- GI50 [6]: 1010 nM (active)
- GI50 [7]: 2630 nM (inactive)
- GI50 [8]: 1790 nM (inactive)
- GI50 [9]: 771 nM
- GI50 [10]: 1970 nM (inactive)
- GI50 [11]: 35.2 nM (active)
- GI50 [12]: 1080 nM (active)
- GI50 [13]: 1000 nM (active)
- GI50 [14]: 6680 nM (inactive)
- GI50 [15]: 6780 nM (inactive)
- GI50 [16]: 597 nM (active)
- GI50 [17]: 2700 nM (inactive)
- GI50 [18]: 2000 nM (inactive)
- GI50 [19]: 465 nM (active)
- GI50 [20]: 9290 nM (inactive)
- GI50 [21]: 895 nM (active)
- GI50 [22]: 647 nM (active)
- GI50 [23]: 2070 nM (inactive)
- GI50 [24]: 2190 nM (inactive)
- GI50 [25]: 6550 nM (inactive)
- GI50 [26]: 764 nM (active)
- GI50 [27]: 289 nM (active)
- GI50 [28]: 16000 nM (inactive)
- GI50 [29]: 2070 nM (inactive)
- GI50 [30]: 2950 nM (inactive)
- GI50 [31]: 2180 nM (inactive)
- GI50 [32]: 6120 nM (inactive)
- GI50 [33]: 2180 nM (inactive)
- GI50 [34]: 262 nM (active)
- GI50 [35]: 853 nM (active)
- GI50 [36]: 6030 nM (inactive)
- GI50 [37]: 6000 nM (inactive)
- GI50 [38]: 2730 nM (inactive)
- GI50 [39]: 1050 nM (active)

SMILES: CCC1CCC2C3CC=C4CC(OC(C)=O)C(N)CC4(C)C3CCC12C (stereo not drawn)
- GI50 [1]: 1820 nM (inactive)
- GI50 [2]: 4890 nM (inactive)
- GI50 [3]: 9530 nM (inactive)
- GI50 [40]: 1860 nM (inactive)
- GI50 [4]: 1820 nM (inactive)
- GI50 [41]: 6210 nM (inactive)
- GI50 [5]: 6000 nM (inactive)
- GI50 [6]: 1800 nM (inactive)
- GI50 [7]: 2360 nM (inactive)
- GI50 [42]: 2700 nM (inactive)
- GI50 [8]: 3490 nM (inactive)
- GI50 [43]: 4930 nM (inactive)
- GI50 [9]: 3300 nM
- GI50 [10]: 4620 nM (inactive)
- GI50 [11]: 1870 nM (inactive)
- GI50 [12]: 5240 nM (inactive)
- GI50 [13]: 1860 nM (inactive)
- GI50 [44]: 2250 nM (inactive)
- GI50 [16]: 3260 nM (inactive)
- GI50 [17]: 2460 nM (inactive)
- GI50 [45]: 2690 nM (inactive)
- GI50 [46]: 5780 nM (inactive)
- GI50 [47]: 1930 nM (inactive)
- GI50 [18]: 2050 nM (inactive)
- GI50 [48]: 2660 nM (inactive)
- GI50 [49]: 2370 nM (inactive)
- GI50 [19]: 2470 nM (inactive)
- GI50 [50]: 6410 nM (inactive)
- GI50 [20]: 3660 nM (inactive)
- GI50 [21]: 5020 nM (inactive)
- GI50 [22]: 8550 nM (inactive)
- GI50 [51]: 4940 nM (inactive)
- GI50 [52]: 5210 nM (inactive)
- GI50 [23]: 2960 nM (inactive)
- GI50 [53]: 1950 nM (inactive)
- GI50 [24]: 3210 nM (inactive)
- GI50 [25]: 2170 nM (inactive)
- GI50 [54]: 1590 nM (inactive)
- GI50 [26]: 2020 nM (inactive)
- GI50 [55]: 2070 nM (inactive)
- GI50 [27]: 7890 nM (inactive)
- GI50 [56]: 2350 nM (inactive)
- GI50 [57]: 5300 nM (inactive)
- GI50 [58]: 20200 nM (inactive)
- GI50 [30]: 6400 nM (inactive)
- GI50 [59]: 2920 nM (inactive)
- GI50 [60]: 2000 nM (inactive)
- GI50 [61]: 1850 nM (inactive)
- GI50 [31]: 1890 nM (inactive)
- GI50 [32]: 5850 nM (inactive)
- GI50 [33]: 2050 nM (inactive)
- GI50 [62]: 2510 nM (inactive)
- GI50 [34]: 5250 nM (inactive)
- GI50 [35]: 2080 nM (inactive)
- GI50 [36]: 3970 nM (inactive)
- GI50 [63]: 2710 nM (inactive)
- GI50 [37]: 5180 nM (inactive)
- GI50 [38]: 2710 nM (inactive)
- GI50 [39]: 2510 nM (inactive)
